The results in this text go back to US20170001990A1 (Genentech, Inc., priority 2014, published 2017).

The target of this assay is Human recombinant carboxy-terminal his-tagged LDHA (amino acids 2-332) (Homo sapiens, UniProt P00338). The assay is described as follows: LDHA enzyme inhibition assay (NADH fluorescence). The settings on record: LDHA IC50 (μM), 1 nM LDHA, NADH and pyruvate, stereochemistry of tested sample given.
With `COc1cc(F)cc(Cc2cccc(C3(c4ccsc4)CC(=O)C(Sc4ccccc4Cl)C(=O)N3)n2)c1` (centres unmarked) [Example 147, 3-((2-chlorophenyl)thio)-6-(6-(3-fluoro-5-methoxy-benzyl)pyridin-2-yl)-6-(thiophen-3-yl)piperidine-2,4-dione], the IC50 came out at 0.008 µM. `O=C1CC(c2ccsc2)(c2cccc(Oc3ccc(F)c(C(F)(F)F)c3)n2)NC(=O)C1Sc1ccccc1Cl` (centres unmarked) [Example 150, 3-(2-chlorophenyl)sulfanyl-6-[6-[4-fluoro-3-(trifluoromethyl)phenoxy]-2-pyridyl]-6-(3-thienyl) piperidine-2,4-dione]: the IC50 was determined as 0.019 µM. The value for `O=C1CC(c2ccsc2)(c2cccc(Cc3cc(F)cc(F)c3)n2)NC(=O)C1Sc1ccccc1Cl` (centres unmarked) [Example 151, 3-(2-chlorophenyl)sulfanyl-6-[6-[(3,5-difluorophenyl)methyl]-2-pyridyl]-6-(3-thienyl)piperidine-2,4-dione] was 0.015 µM; that for `O=C1CC(c2ccsc2)(c2cccc(Oc3ccc(F)c(C(F)F)c3)n2)NC(=O)C1Sc1ccccc1Cl` (centres unmarked) [Example 152, 3-(2-chlorophenyl)sulfanyl-6-[6-[3-(difluoromethyl)-4-fluoro-phenoxy]-2-pyridyl]-6-(3-thienyl) piperidine-2,4-dione] was 0.006 µM; that for `O=C1CC(c2ccsc2)(c2cccc(Oc3cccc(C(F)(F)F)c3)n2)NC(=O)C1Sc1ccccc1Cl` (centres unmarked) [Example 153, 3-(2-chlorophenyl)sulfanyl-6-(3-thienyl)-6-[6-[3-(trifluoromethyl)phenoxy]-2-pyridyl]piperidine-2,4-dione] was 0.012 µM. On to `O=C1CC(c2ccsc2)(c2cccc(N3CC(C4CCOCC4)C3)n2)NC(=O)C1Sc1ccccc1Cl` (centres unmarked) [Example 162, 3-(2-chlorophenyl)sulfanyl-6-[6-(3-tetrahydropyran-4-ylazetidin-1-yl)-2-pyridyl]-6-(3-thienyl) piperidine-2,4-dione], for which the IC50 is 0.004 µM. Regarding `CCC(C)COc1cccc(C2(c3ccsc3)CC(=O)C(Sc3ccccc3Cl)C(=O)N2)n1` (centres unmarked) [Example 164, 3-(2-chlorophenyl)sulfanyl-6-[6-(2-methylbutoxy)-2-pyridyl]-6-(3-thienyl) piperidine-2,4-dione], the IC50 is 0.009 µM.

In the case of `O=C1CC(c2ccsc2)(c2cccc(Oc3ccc(Cl)cc3)n2)NC(=O)C1Sc1ccccc1Cl` (centres unmarked) [Example 167, 6-[6-(4-chlorophenoxy)-2-pyridyl]-3-(2-chlorophenyl) sulfanyl-6-(3-thienyl) piperidine-2,4-dione], the IC50 came out at 0.006 µM. Take `O=C1CC(c2ccsc2)(c2cccc(Oc3cccc(C(F)(F)F)c3)n2)NC(=O)C1Sc1ccccc1Cl` (centres unmarked) [Example 169, 3-(2-chlorophenyl)sulfanyl-6-(3-thienyl)-6-[6-[3-(trifluoromethyl)phenoxy]-2-pyridyl]piperidine-2,4-dione]: the half-inhibitory concentration (IC50) was determined as 0.01 µM. The value for `O=C1CC(c2ccsc2)(c2cccc(NCCC3CC3)n2)NC(=O)C1Sc1ccccc1Cl` (centres unmarked) [Example 173, 3-(2-chlorophenyl)sulfanyl-6-[6-(2-cyclopropyl-ethylamino)-2-pyridyl]-6-(3-thienyl)piperidine-2,4-dione] was 0.183 µM.

Take `O=C1CC(c2ccsc2)(c2cccc(NCCC3CC3)n2)NC(=O)C1Sc1ccccc1Cl` (centres unmarked) [Example 174, 3-(2-chlorophenyl)sulfanyl-6-[6-(2-cyclopropyl-ethylamino)-2-pyridyl]-6-(3-thienyl)piperidine-2,4-dione]: the IC50 was 0.068 µM.

As to `O=C1CC(c2ccsc2)(c2cccc(Oc3ccc(Cl)cc3)n2)NC(=O)C1Sc1ccccc1Cl` (centres unmarked) [Example 175, 6-[6-(4-chlorophenoxy)-2-pyridyl]-3-(2-chlorophenyl) sulfanyl-6-(3-thienyl) piperidine-2,4-dione], the IC50 is 0.013 µM. As for `O=C1CC(c2ccsc2)(c2cccc(N3CCc4ccc(CO)cc43)n2)NC(=O)C1Sc1ccccc1Cl` (centres unmarked) [Example 177, 3-(2-chlorophenyl)sulfanyl-6-[6-[6-(hydroxymethyl)indolin-1-yl]-2-pyridyl]-6-(3-thienyl)piperidine-2,4-dione], the IC50 was found to be 0.016 µM. `CC(COc1cccc(C2(c3ccsc3)CC(=O)C(Sc3ccccc3Cl)C(=O)N2)n1)C1CC1` (centres unmarked) [Example 179, 3-((2-chlorophenyl)thio)-6-(6-(2-cyclopropyl-propoxy)pyridin-2-yl)-6-(thiophen-3-yl)piperidine-2,4-dione]: the IC50 came out at 0.014 µM. As for `CC1CC1COc1cccc(C2(c3ccsc3)CC(=O)C(Sc3ccccc3Cl)C(=O)N2)n1` (centres unmarked) [Example 183, 3-(2-chlorophenyl)sulfanyl-6-[6-[(2-methylcyclo-propyl)methoxy]-2-pyridyl]-6-(3-thienyl)piperidine-2,4-dione], the IC50 amounted to 0.005 µM. Turning to `O=C1CC(c2ccsc2)(c2cccc(OCc3ccncc3)n2)NC(=O)C1Sc1ccccc1Cl` (centres unmarked) [Example 186, 3-(2-chlorophenyl)sulfanyl-6-[6-(4-pyridylmethoxy)-2-pyridyl]-6-(3-thienyl) piperidine-2,4-dione], the IC50 was found to be 0.021 µM. The value for `CCC(C)COc1cccc(C2(c3ccsc3)CC(=O)C(Sc3ccccc3Cl)C(=O)N2)n1` (centres unmarked) [Example 188, 3-(2-chlorophenyl)sulfanyl-6-[6-(2-methylbutoxy)-2-pyridyl]-6-(3-thienyl) piperidine-2,4-dione] was 0.015 µM.

Consider `O=C1CC(c2ccsc2)(c2cccc(OCCN3CCCC3=O)n2)NC(=O)C1Sc1ccccc1Cl` (centres unmarked) [Example 189, 3-(2-chlorophenyl)sulfanyl-6-[6-[2-(2-oxopyrrolidin-1-yl)ethoxy]-2-pyridyl]-6-(3-thienyl)piperidine-2,4-dione], for which the IC50 turned out to be 0.15 µM. Turning to `CC1(C)OCC(CCOc2cccc(C3(c4ccsc4)CC(=O)C(Sc4ccccc4Cl)C(=O)N3)n2)O1` (centres unmarked) [Example 190, 3-(2-chlorophenyl)sulfanyl-6-[6-[2-(2,2-dimethyl-1,3-dioxolan-4-yl)ethoxy]-2-pyridyl]-6-(3-thienyl) piperidine-2,4-dione], the IC50 is 0.092 µM. Turning to `CC1(C)OCC(CCOc2cccc(C3(c4ccsc4)CC(=O)C(Sc4ccccc4Cl)C(=O)N3)n2)O1` (centres unmarked) [Example 191, 3-(2-chlorophenyl)sulfanyl-6-[6-[2-(2,2-dimethyl-1,3-dioxolan-4-yl)ethoxy]-2-pyridyl]-6-(3-thienyl) piperidine-2,4-dione], the IC50 was 0.158 µM. `CCC(C)COc1cccc(C2(c3ccsc3)CC(=O)C(Sc3ccccc3Cl)C(=O)N2)n1` (centres unmarked) [Example 210, 3-(2-chlorophenyl)sulfanyl-6-[6-(2-methylbutoxy)-2-pyridyl]-6-(3-thienyl) piperidine-2,4-dione]: the IC50 was found to be 0.008 µM. With `CC1(C)OCC(CCOc2cccc(C3(c4ccsc4)CC(=O)C(Sc4ccccc4Cl)C(=O)N3)n2)O1` (centres unmarked) [Example 211, 3-(2-chlorophenyl)sulfanyl-6-[6-[2-(2,2-dimethyl-1,3-dioxolan-4-yl)ethoxy]-2-pyridyl]-6-(3-thienyl) piperidine-2,4-dione], the IC50 came out at 0.183 µM.

Regarding `O=C1CC(c2ccsc2)(c2cccc(Oc3ccc(F)c(F)c3)n2)NC(=O)C1Oc1ccccc1Cl` (centres unmarked) [Example 217, 3-(2-chlorophenoxy)-6-[6-(3,4-difluorophenoxy)-2-pyridyl]-6-(3-thienyl) piperidine-2,4-dione], the IC50 is 0.01 µM.
